Measurements as given in patent publication US11286268B1, “EIF4E-inhibiting compounds and methods” (EFFECTOR THERAPEUTICS, INC., priority 2019, dated 2022).

Target: recombinant eIF4E (Homo sapiens (Human), UniProt P06730)
Experiment: Fluorescence polarization competition assay for eIF4E binding potency
Details: inhibition of eIF4E/EDA-m7GDP-ATTO-550 binding; calculated IC50 values, Table 4B; read-out: IC50
How it was run: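 Competition of test compound against 20 nM EDA-m^7GDP-ATTO-550 for 75 nM recombinant eIF4E, pre-incubated 5 min, in 20 mM Tris pH 7.5, 100 mM NaCl, 1 mM DTT, 0.02% Tween-20, 1% DMSO. Equilibrated 30 min at room temperature, dark; fluorescence polarization read. IC50 from 8-point, 3-fold dilution series.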

recombinant eIF4E, sequence (P06730 whole entry): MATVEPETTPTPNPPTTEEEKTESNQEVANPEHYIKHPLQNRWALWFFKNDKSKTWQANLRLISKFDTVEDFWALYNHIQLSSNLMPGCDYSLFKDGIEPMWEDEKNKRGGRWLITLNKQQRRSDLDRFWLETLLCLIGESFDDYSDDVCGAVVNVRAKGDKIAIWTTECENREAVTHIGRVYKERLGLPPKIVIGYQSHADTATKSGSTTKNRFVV

Structure (SMILES)	IC50
Cc1nc2cnc(C#CC3CCCN3C3CC3)c(C#N)c2c(=O)n1CCOc1ccc(Cl)cc1-c1ccnc2c(C(=O)O)csc12 (centres unmarked) [compound 1344]	18.3 nM
Cc1nc2cnc(CCCN(C)CCF)c(C#N)c2c(=O)n1CCOc1ccc(Cl)cc1-c1ccnc2c(C(=O)O)csc12 [compound 1345]	34.5 nM
Cc1nc2cnc(C#CCN(C)C3(C)CC3)c(C#N)c2c(=O)n1CCOc1ccc(Cl)cc1-c1ccnc2c(C(=O)O)csc12 [compound 1346]	19.7 nM
Cc1nc2cnc(N3CCN(C)C4CC43)c(C#N)c2c(=O)n1C/C=C/c1ccc(Cl)cc1-c1ccnc2c(C(=O)O)csc12 (centres unmarked) [compound 1347]	41.4 nM
Cc1nc2cnc(N3CCN4CCC3C4)c(C#N)c2c(=O)n1CCOc1ccc(Cl)cc1-c1ccnc2c(C(=O)O)csc12 (centres unmarked) [compound 1348]	12.2 nM
Cc1nc2cnc(SC3CCN(CC(F)(F)F)CC3)c(C#N)c2c(=O)n1CCOc1ccc(Cl)cc1-c1ccnc2c(C(=O)O)csc12 [compound 1349]	36.5 nM
Cc1nc2cnc(N3C[C@@H](C)N(CC(F)F)[C@@H](C)C3)c(C#N)c2c(=O)n1CCOc1ccc(Cl)cc1-c1ccnc2c(C(=O)O)csc12 [compound 1350]	35.1 nM
Cc1nc2cnc(N3CCN(C)C4(COC4)C3)c(C#N)c2c(=O)n1CCOc1ccc(Cl)cc1-c1ccnc2c(C(=O)O)csc12 [compound 1351]	16 nM
Cc1nc2cnc(N3CCN(CCC(F)(F)F)CC3)c(C#N)c2c(=O)n1CC#Cc1ccc(Cl)cc1-c1ccnc2c(C(=O)O)csc12 [compound 1353]	17.2 nM
Cc1nc2cnc(N3CCN(C4CC4)CC3)c(C#N)c2c(=O)n1CC#Cc1ccc(Cl)cc1-c1ccnc2c(C(=O)O)csc12 [compound 1354]	21.6 nM
Cc1nc2cnc(N3CCN(C4CC(F)(F)C4)CC3)c(C#N)c2c(=O)n1CC#Cc1ccc(Cl)cc1-c1ccnc2c(C(=O)O)csc12 [compound 1355]	24.8 nM
Cc1nc2cnc(N3CCN(CC(F)F)CC3)c(C#N)c2c(=O)n1CC#Cc1ccc(Cl)cc1-c1ccnc2c(C(=O)O)csc12 [compound 1356]	23.2 nM
Cc1nc2cnc(N3CCN(CC(F)C(F)(F)F)CC3)c(C#N)c2c(=O)n1CCOc1ccc(Cl)cc1-c1ccnc2c(C(=O)O)csc12 (centres unmarked) [compound 1358]	18.3 nM
Cc1nc2cnc(N3CCN(CC(C(F)(F)F)C(F)(F)F)CC3)c(C#N)c2c(=O)n1CCOc1ccc(Cl)cc1-c1ccnc2c(C(=O)O)csc12 [compound 1359]	39.7 nM
Cc1nc2cnc(N(C)C3CCN(CCC(F)(F)F)CC3)c(C#N)c2c(=O)n1CCOc1ccc(Cl)cc1-c1ccnc2c(C(=O)O)csc12 [compound 1360]	16.8 nM
Cc1nc2cnc(N3CCN(C4(CC(F)(F)F)CC4)CC3)c(C#N)c2c(=O)n1CCOc1ccc(Cl)cc1-c1ccnc2c(C(=O)O)csc12 [compound 1361]	21.3 nM
Cc1nc2cnc(N3CCN(CC(F)(F)F)CC3)c(C#N)c2c(=O)n1CC#Cc1ccc(Cl)cc1-c1ccnc2c(C(=O)NS(C)(=O)=O)csc12 [compound 1362]	14.1 nM
Cc1nc2cnc(N3CC4(CC4)N(C)C4(CC4)C3)c(C#N)c2c(=O)n1CCOc1ccc(Cl)cc1-c1ccnc2c(C(=O)O)csc12 [compound 1363]	42.9 nM

Structure (SMILES)	IC50
Cc1nc2cnc(N3CCN(C4(C)CC4)CC3)c(C#N)c2c(=O)n1CCOc1ccc(Cl)cc1-c1ccnc2c(C(=O)O)csc12 [compound 1365]	34.1 nM
Cc1nc2cnc(N3CCN(C4(C(F)F)CC4)CC3)c(C#N)c2c(=O)n1CC#Cc1ccc(Cl)cc1-c1ccnc2c(C(=O)O)csc12 [compound 1366]	14.3 nM
Cc1nc2cnc(N3CCN(C(C)(C)CC#N)CC3)c(C#N)c2c(=O)n1CC#Cc1ccc(Cl)cc1-c1ccnc2c(C(=O)O)csc12 [compound 1367]	14.9 nM
Cc1nc2cnc(N3CCN(C4(C#N)CC4)CC3)c(C#N)c2c(=O)n1CC#Cc1ccc(Cl)cc1-c1ccnc2c(C(=O)O)csc12 [compound 1368]	19.9 nM
Cc1nc2cnc(N3CC4(C3)CN(C3CCCC3)C4)c(C#N)c2c(=O)n1CCOc1ccc(Cl)cc1-c1ccnc2c(C(=O)O)csc12 [compound 1369]	13.2 nM
Cc1nc2cnc(N(C)C3CCN(CC4CC4)CC3)c(C#N)c2c(=O)n1CCOc1ccc(Cl)cc1-c1ccnc2c(C(=O)O)csc12 [compound 1370]	19.9 nM
Cc1nc2cc(C(F)(F)F)cc(C#N)c2c(=O)n1CCOc1ccc(Cl)cc1-c1ccnc(C(=O)NS(C)(=O)=O)c1 [compound 1372]	80.7 nM
Cc1nc2c(F)ccc(C#N)c2c(=O)n1CCOc1ccc(Cl)cc1-c1ccnc2c(C(=O)O)csc12 [compound 1373]	26.7 nM
Cc1nc2cc(C(F)(F)F)cc(C#N)c2c(=O)n1CCOc1ccc(Cl)cc1-c1cc(CCN)nc2c(C(=O)O)csc12 [compound 1374]	56.1 nM
Cc1nc2cc(C(F)(F)F)cc(C#N)c2c(=O)n1CCOc1ccc(Cl)cc1-c1ccnc2c(-c3cc(O)no3)csc12 [compound 1375]	83.9 nM
Cc1cc(-c2cc(Cl)ccc2OCCn2c(C)nc3cc(C(F)(F)F)c(CN4CCSCC4)c(C#N)c3c2=O)c2scc(C(=O)O)c2n1 [compound 1376]	13.6 nM
Cc1cc(-c2cc(Cl)ccc2OCCn2c(C)nc3cc(C(F)(F)F)c(CN4CCS(=O)(=O)CC4)c(C#N)c3c2=O)c2scc(C(=O)O)c2n1 [compound 1377]	44 nM
Cc1cc(-c2cc(Cl)ccc2OCCn2c(C)nc3c(-c4ccccc4)ncc(C#N)c3c2=O)c2scc(C(=O)O)c2n1 [compound 1378]	30 nM
Cc1cc(-c2cc(Cl)ccc2OCCn2c(C)nc3cc(C)c(CN(C)C)c(C#N)c3c2=O)c2scc(C(=O)O)c2n1 [compound 1379]	18 nM
Cc1cc(-c2cc(Cl)ccc2OCCn2c(C)nc3cc(C(F)(F)F)c(-c4ncccc4C)c(C#N)c3c2=O)c2scc(C(=O)O)c2n1 [compound 1380]	26.6 nM
Cc1cc(-c2cc(Cl)ccc2OCCn2c(C)nc3cc(C(F)(F)F)c(-c4ccc(F)cn4)c(C#N)c3c2=O)c2scc(C(=O)O)c2n1 [compound 1381]	7.96 nM
Cc1cc(-c2cc(Cl)ccc2OCCn2c(C)nc3cnc(-c4ccccc4)c(C#N)c3c2=O)c2scc(C(=O)O)c2n1 [compound 1382]	21.6 nM
CC(=O)c1csc2c(-c3cc(Cl)ccc3C#CCn3c(C)nc4cnc(N(C)[C@H]5C[C@H]6CC[C@@H](C5)N6CC(F)F)c(C#N)c4c3=O)ccnc12 [compound 1406]	26.6 nM

Further lines, results first:

IC50	Structure (SMILES)
5.03 nM	Cc1cc(-c2cc(Cl)ccc2OCCn2c(C)nc3cc(C(F)(F)F)c(-c4cnc(C)c(F)c4)c(C#N)c3c2=O)c2scc(C(=O)O)c2n1 [compound 1383]
6.86 nM	Cc1cc(-c2cc(Cl)ccc2OCCn2c(C)nc3cc(C(F)(F)F)c(-c4cnc(Cl)cc4F)c(C#N)c3c2=O)c2scc(C(=O)O)c2n1 [compound 1384]
7.24 nM	Cc1cc(-c2c(C(F)F)cc3nc(C)n(CCOc4ccc(Cl)cc4-c4cc(C)nc5c(C(=O)O)csc45)c(=O)c3c2C#N)cc(C)n1 [compound 1385]
12.8 nM	Cc1cc(-c2c(C(F)F)cc3nc(C)n(CCOc4ccc(Cl)cc4-c4cc(C)nc5c(C(=O)O)csc45)c(=O)c3c2C#N)ccn1 [compound 1386]
22.8 nM	Cc1cc(-c2cc(Cl)ccc2OCCn2c(C)nc3cc(C(F)F)c(-c4cncc(F)c4)c(C#N)c3c2=O)c2scc(C(=O)O)c2n1 [compound 1387]
36.2 nM	Cc1cc(F)c(-c2c(C(F)(F)F)cc3nc(C)n(CCOc4ccc(Cl)cc4-c4cc(C)nc5c(C(=O)O)csc45)c(=O)c3c2C#N)cn1 [compound 1388]
1190 nM	Cc1cc(O)c(-c2c(C(F)(F)F)cc3nc(C)n(CCOc4ccc(Cl)cc4-c4cc(C)nc5c(C(=O)O)csc45)c(=O)c3c2C#N)cn1 [compound 1389]
37.6 nM	COC(=O)c1csc2c(-c3cc(Cl)ccc3OCCn3c(C)nc4cc(C(F)(F)F)c(N5CCN(C)CC5)c(C#N)c4c3=O)cc(C)nc12 [compound 1391]
26.5 nM	Cc1cc(-c2cc(Cl)ccc2OCCn2c(C)nc3cc(C(F)(F)F)c(OCCN4CCNCC4)c(C#N)c3c2=O)c2sc(C)c(C(=O)O)c2n1 [compound 1392]
13.2 nM	Cc1cc(-c2cc(Cl)ccc2OCCn2c(C)nc3cc(C(F)(F)F)c(N4CCN(CCO)CC4)c(C#N)c3c2=O)c2sc(C)c(C(=O)O)c2n1 [compound 1393]
4.74 nM	CCc1cc(-c2cc(Cl)ccc2OCCn2c(C)nc3cc(C(F)(F)F)c(CC4CN(C)C4)c(C#N)c3c2=O)c2scc(C(=O)O)c2n1 [compound 1394]
29.6 nM	Cc1nc2c(N3CCN(CCOC(F)(F)F)CC3)ncc(C#N)c2c(=O)n1CCOc1ccc(Cl)cc1-c1ccnc2c(C(=O)O)csc12 [compound 1395]
14.7 nM	Cc1nc2c(N3CCN(C4(C(F)F)COC4)CC3)ncc(C#N)c2c(=O)n1CCOc1ccc(Cl)cc1-c1ccnc2c(C(=O)O)csc12 [compound 1397]
27.8 nM	Cc1nc2cnc(N3CCN(C(C)(C)CCC(F)(F)F)CC3)c(C#N)c2c(=O)n1CCOc1ccc(Cl)cc1-c1ccnc2c(C(=O)O)csc12 [compound 1400]
12.7 nM	Cc1nc2cnc(N3CCN(C4(CCC(F)(F)F)CC4)CC3)c(C#N)c2c(=O)n1CCOc1ccc(Cl)cc1-c1ccnc2c(C(=O)O)csc12 [compound 1401]
6.58 nM	Cc1nc2cnc(/C=C/CN(C)CCF)c(C#N)c2c(=O)n1CC#Cc1ccc(Cl)cc1-c1ccnc2c(C(=O)O)csc12 [compound 1402]
8.76 nM	Cc1nc2cnc(N(C)[C@H]3[C@@H]4CN(CC(F)F)C[C@@H]43)c(C#N)c2c(=O)n1CC#Cc1ccc(Cl)cc1-c1ccnc2c(C(=O)O)csc12 [compound 1403]
482 nM	COC(=O)c1csc2c(-c3cc(Cl)ccc3C#CCn3c(C)nc4cnc(N5CCN(CC(F)F)CC5)c(C#N)c4c3=O)ccnc12 [compound 1404]
631 nM	COC(=O)c1csc2c(-c3cc(Cl)ccc3C#CCn3c(C)nc4cnc(N5CCN(CCOC(F)(F)F)CC5)c(C#N)c4c3=O)ccnc12 [compound 1405]
24.7 nM	Cc1nc2cnc(N(C)[C@@H]3[C@@H]4CN(CC(F)F)C[C@@H]43)c(C#N)c2c(=O)n1CC#Cc1ccc(Cl)cc1-c1ccnc2c(C(=O)O)csc12 [compound 1407]
